{"source": "patent US20100210589A1", "about": "“METHOD FOR IMPROVING HEPATIC FUNCTION” (Kabushiki Kaisha Kayashibara Seibutsu Kagaku Kenkyujo, priority 2004, published 2010)", "test_system": "golden hamsters", "test": "Administration test of α-glucosyl-hesperidin on hamsters (serum GOT and GPT, cholesterol-supplemented feed)", "type": "in vivo, golden hamster", "details": "compared with hesperidin at equal molar dose", "method": "The animal experiment using hamsters was performed to investigate the influences of the intake of α-glucosyl-hesperidin on hepatic functions.\nA group of five golden hamsters of five weeks old was fed on liberal amount of “NMF Lab Animal Diet Powder” (produced by Oriental Yeast Co., Ltd.) with the administration of “αG-HESPERIDINPS®” (a powdery α-glucosyl-hesperidin containing […] of α-glucosyl-hesperidin, commercialized by Hayashibara Shoji, Inc.) dissolved in distilled water. α-Glucosyl-hesperidin was administered to the hamsters through a stomach sonde at a dose of 0.25 mmole (193 mg)/kg/body weight every day. After two-week administrations of α-glucosyl-hesperidin, the hamsters were fed for additional three weeks in the same way as described above except that their feed was supplemented with 1% by weight of cholesterol. At four hours after the final administrations, the hamsters were anesthetized and underwent laparotomy, and their large-venous blood samples were taken. After the separation of the hamsters' serums by a conventional method, the levels of GOT and GPT were measured. […] The other group was fed on liberal amount of “NMF Lab Animal Diet Powder” with no administration of the test articles and their blood samples were taken in the same way as describe above, and the serum levels of GOT and GPT were measured to obtain the data before the administrations."}
{"smiles": "COc1ccc(C2CC(=O)c3c(O)cc(O[C@@H]4OC(CO[C@@H]5OC(C)[C@H](O)C(O)C5O)[C@@H](COC[C@H]5OC(CO)[C@@H](O)C(O)C5O)C(O)C4O)cc3O2)cc1O", "note": "(stereo partly drawn) [α-Glucosyl-hesperidin, α-glucosyl-hesperidin]", "values": [{"measurement": "effect for keeping hepatic-function indexes (serum GOT, GPT) at a lower level", "result": "greater effect than that of hesperidin"}]}
